Literature values as cited in patent US12453729B2, “Pharmaceutical formulations” (AstraZeneca AB, priority 2020, dated 2025).

How the values were obtained:
ERα receptor [1] = biological target: T1, ERα receptor (Homo sapiens, UniProt P03372); conditions: in vitro breast cancer cell line experiments
T1 sequence (P03372 1-595): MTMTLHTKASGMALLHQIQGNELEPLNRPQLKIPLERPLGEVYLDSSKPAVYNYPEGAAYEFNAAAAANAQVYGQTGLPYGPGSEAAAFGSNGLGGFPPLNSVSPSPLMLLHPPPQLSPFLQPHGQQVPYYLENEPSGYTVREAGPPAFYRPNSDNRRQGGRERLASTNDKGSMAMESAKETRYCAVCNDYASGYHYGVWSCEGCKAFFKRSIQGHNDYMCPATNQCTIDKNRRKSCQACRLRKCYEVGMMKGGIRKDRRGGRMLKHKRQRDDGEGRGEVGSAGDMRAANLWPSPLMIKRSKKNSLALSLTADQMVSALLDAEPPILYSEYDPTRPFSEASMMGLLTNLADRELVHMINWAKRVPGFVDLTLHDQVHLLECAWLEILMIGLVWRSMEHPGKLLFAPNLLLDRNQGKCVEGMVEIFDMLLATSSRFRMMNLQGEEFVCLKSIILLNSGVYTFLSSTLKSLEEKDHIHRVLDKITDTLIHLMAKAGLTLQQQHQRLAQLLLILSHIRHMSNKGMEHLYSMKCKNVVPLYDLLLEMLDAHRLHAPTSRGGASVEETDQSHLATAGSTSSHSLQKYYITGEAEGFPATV

ERα receptor [2] = biological target: T1, ERα receptor; conditions: patient samples; 500 mg monthly dose

## C[C@]12CC[C@@H]3c4ccc(O)cc4C[C@@H](CCCCCCCCC[S+]([O-])CCCC(F)(F)C(F)(F)F)[C@H]3[C@@H]1CC[C@@H]2O (some centres unmarked) [Fulvestrant]
ERα receptor [1]
  down-regulation of the receptor: complete down-regulation
ERα receptor [2]
  turnover of the receptor: less than 50%
